The values below come from US20260215426A1, “HERBICIDAL COMPOSITIONS” (SYNGENTA CROP PROTECTION AG, priority 2022, published 2026).

Holding throughout (type): in vivo
In assay [1] the test system is Alopecurus myosuroides (ALOMY). The assay can be described thus: Post-emergence glasshouse efficacy against Alopecurus myosuroides. The conditions noted are these: 14 days. From the text: (§1) When active ingredients are combined, the activity to be expected (E) for any given active ingredient combination obeys the so-called Colby Formula and can be calculated as follows (Colby, S. R., Calculating synergistic and antagonistic responses of herbicide combination, Weeds, Vol. 15, pages 20-22; 1967): • ppm=milligrams of active ingredient (a.i.) per liter • X=% action by first active ingredient using p ppm of the active ingredient • Y=% action by second active ingredient sing q ppm of the active ingredient.
(§2) According to Colby, the expected action of active ingredients A+B using p+q ppm of active ingredient is represented by the following formula: […]
(§3) If the action actually observed (O) is greater than the expected action E then the action of the combination is super-additive, i.e. there is a synergistic effect. In mathematical terms, synergism corresponds to a positive value for the difference of (O-E). In the case of purely complementary addition of activities (expected activity), said difference (O-E) is zero. A negative value of said difference (O-E) signals a loss of activity compared to the expected activity.
(§4) Seeds of a variety of test species are sown in standard soil in pots (Echinochloa crus-galli (ECHCG), Conyza canadensis (ERICA), Amaranthus palmeri (AMAPA), Alopecurus myosuroides (ALOMY), Lolium perenne (LOLPE), and Setaria faberi (SETFA)), and cultivated under controlled conditions in a glasshouse (at 24/16° C., day/night; 14 hours light; 65% humidity), the plants are sprayed with an aqueous spray solution derived from the dissolution of the test compound or composition in acetone and IF50 (11.12% Emulsogen EL360 TM+44.44% N-methylpyrrolidone+44.44% Dowanol DPM glycol ether) which was then diluted to the required concentration using 0.2% Genapol XO80 (CAS No. 9043-30-5) in water as the diluent. Test compounds or compositions are applied at the rates stated. The test plants are then grown in a glasshouse under controlled conditions in a glasshouse (at 24/16° C., day/night; 14 hours light; 65% humidity) and watered twice daily. After 14 days, the test is evaluated for the percentage damage caused to the plant (100=total damage to plant; 0=no damage to plant), and the result are shown below in table B1 to B6.

The subject of assay [2] is Lolium perenne (LOLPE). The assay can be described thus: Post-emergence glasshouse efficacy against Lolium perenne. Particulars: 14 days.
Text: as §1, §2, §3, §4

Assay [3] deals with Amaranthus palmeri (AMAPA). Briefly: Post-emergence glasshouse efficacy against Amaranthus palmeri. The conditions noted are these: 7-8 true leaves, 14 days.
Text: as §1, §2, §3, §4

For assay [4], the system named is Conyza canadensis (ERICA). The assay can be described thus: Post-emergence glasshouse efficacy against Conyza canadensis. The conditions noted are these: 8 cm rosette, 14 days.
Text: as §1, §2, §3, §4

The subject of assay [5] is Setaria faberi (SETFA). Briefly: Post-emergence glasshouse efficacy against Setaria faberi. The conditions noted are these: 14 days, alone 3.75 g/Ha.
Text: as §1, §2
If the action actually observed (O) is greater than the expected action E then the action of the combination is super-additive, i.e. there is a synergistic effect. In mathematical terms, synergism corresponds to a positive value for the difference of (O-E). In the case of purely complementary addition of activities (expected activity), said difference (O-E) is zero. A negative value of said difference (O-E) signals a loss of activity compared to the expected activity. […]

Assay [6] has as its system Echinochloa crus-galli (ECHCG). Briefly: Post-emergence glasshouse efficacy against Echinochloa crus-galli. The conditions noted are these: 4 true leaves, 14 days.
Text: as §1, §2, §3, §4

As to bicyclopyrone, the “Observed Activity (%)” value in assay [1] (alone 7.5 g/Ha) was found to be 47.5%; in assay [1] (alone 15.0 g/Ha), 60.0%; in assay [1] (alone 30.0 g/Ha), 60.0%; in assay [2] (alone 3.75 g/Ha), 0.0%; in assay [2] (alone 7.5 g/Ha) it was 10.0%; in assay [2] (alone 15.0 g/Ha), 25.0%. The “Observed Activity (%)” value is 47.5% in assay [2] (alone 30.0 g/Ha); 0.0% in assay [3] (alone 3.75 g/Ha); 30.0% in assay [3] (alone 7.5 g/Ha); 45.0% in assay [3] (alone 15.0 g/Ha); 18.3% in assay [3] (alone 30.0 g/Ha); 65.0% in assay [4] (alone 15.0 g/Ha). The “Observed Activity (%)” value in assay [4] (alone 30.0 g/Ha) is on record as 71.7%; in assay [4] (alone 60.0 g/Ha) it was 70.0%; in assay [5] it was 22.5%; in assay [6] (alone 3.75 g/Ha), 21.7%; in assay [6] (alone 7.5 g/Ha), 46.7%; in assay [6] (alone 15.0 g/Ha), 56.7%. Also, the “Observed Activity (%)” value in assay [6] (alone 30.0 g/Ha) was 61.7%; in assay [6] (alone 60.0 g/Ha), 63.3%.
Turning to `CCOC(=O)C1(C)CC(c2cc(-n3c(=O)cc(C(F)(F)F)n(C)c3=O)c(F)cc2Cl)=NO1` (stereo not drawn) [Compound (Ia)], the inhibition at 30 g/ha in assay [1] (Alopecurus myosuroides, 336 h, alone 30.0 g/Ha, read-out: Observed Activity (%)) stood at 67.5%; in assay [2] (Lolium perenne, 336 h, alone 30.0 g/Ha, read-out: Observed Activity (%)), 93.5%. Besides, the inhibition at 60 g/ha in assay [1] (Alopecurus myosuroides, 336 h, alone 60.0 g/Ha, read-out: Observed Activity (%)) came to 97.5%. Further, the inhibition at 3.75 g/ha in assay [2] (Lolium perenne, 336 h, alone 3.75 g/Ha, read-out: Observed Activity (%)) came to 12.5%; in assay [3] (Amaranthus palmeri, 336 h, alone 3.75 g/Ha, read-out: Observed Activity (%)) it was 36.7%; in assay [4] (Erigeron canadensis, 336 h, alone 3.75 g/Ha, read-out: Observed Activity (%)), 21.7%; in assay [5] (Setaria faberi, 336 h, read-out: Observed Activity (%)), 67.5%; in assay [6] (Echinochloa crus-galli, 336 h, alone 3.75 g/Ha, read-out: Observed Activity (%)), 29.3%. In addition, the inhibition at 7.5 g/ha in assay [2] (Lolium perenne, 336 h, alone 7.5 g/Ha, read-out: Observed Activity (%)) turned out to be 42.5%; in assay [4] (Erigeron canadensis, 336 h, alone 7.5 g/Ha, read-out: Observed Activity (%)) it was 48.3%; in assay [6] (Echinochloa crus-galli, 336 h, alone 7.5 g/Ha, read-out: Observed Activity (%)), 73.3%. For the same compound, the inhibition at 15 g/ha in assay [2] (Lolium perenne, 336 h, alone 15.0 g/Ha, read-out: Observed Activity (%)) came to 50%. The inhibition at 0.9375 g/ha in assay [3] (Amaranthus palmeri, 336 h, alone 0.9375 g/Ha, read-out: Observed Activity (%)) turned out to be 0%. Moreover, the inhibition at 1.875 g/ha worked out at 0% in assay [3] (Amaranthus palmeri, 336 h, alone 1.875 g/Ha, read-out: Observed Activity (%)); 20% in assay [4] (Erigeron canadensis, 336 h, alone 1.875 g/Ha, read-out: Observed Activity (%)); 6.7% in assay [6] (Echinochloa crus-galli, 336 h, alone 1.875 g/Ha, read-out: Observed Activity (%)).
